Laboratory results as given in patent US10073082B2, “Proteasome inhibition assay and methods of use” (UNIVERSITY HEALTH NETWORK, priority 2013, dated 2018).
Peptide text beside a SMILES is read from it. * marks the point of attachment. Cbz = O=C(OCc1ccccc1)*

Legend:
Assay type in all cases: cell-based, human
[1] = test system: IκB in peripheral blood monocytes; assay: Flow cytometry assay, whole blood pretreated with effector: LPS induced degradation of IκB in monocytes; details: whole blood pretreated with compound, then LPS
Procedure: Whole blood samples from normal human donors were collected. 100 μL aliquots of the whole blood were inserted into the bottom of 12×75 mm tubes. In order to reduce the potential for contamination of the sample with unfixed cells, blood was removed from the side of the tubes with a cotton swab. 1-2 μL of a proteasome effector was added to a first portion of the tubes and these tubes were incubated for 2 hours at 37° C. in a water bath. In this example, the proteasome effector was Bortezomib or MG-132, both proteasome inhibitors. Following pretreatment with the proteasome effector, 2 μL of 50 mg/mL stock solution (100 ng) of an IκB degradation agonist was added to the tubes and the tubes were incubated from 1 minute to 60 minutes at 37° C. in a water bath. In this example, the agonist was lipopolysaccharide (LPS). A second portion of the tubes were treated with the IκB degradation agonist and no proteasome effector. […]
(§1) Following the above wash steps, the fixed and permeabilized cells were resuspended in 100 μL of cold Wash Buffer comprising antibodies to specific intracellular antigens (e.g., signaling targets including P-ERK, P-Akt, P-p38, P-SAPK, P-S6, and antibodies to IκB). […] The supernatant was aspirated and the cell pellet was resuspended in 350 μL of Resuspension Buffer (PerFix-P® kit) and analyzed on a flow cytometer (GALLIOS™) using a protocol with defined population gates and series of dual parameter histograms. A CD45-KO vs. SS dual parameter histogram was collected and a gate around the leukocyte population based on the CD45+ fluorescence and SS characteristics was drawn to exclude debris (CD45 negative events). […] The collected flow cytometric data was analyzed using KALUZA™ software.
(§2) Phosphorylation of signaling pathways activated by LPS, including ERK, Akt (activated by PI3 Kinase), and the ribosomal S6 protein (a marker of protein synthesis) were also monitored together with the degradation of IκB. […] The degradation of IκB in cells pretreated with MG-132 or GDC-0941 was monitored by flow cytometry as described in Example 1. […]

[2] = test system: IκB in peripheral blood lymphocytes; assay: Flow cytometry assay, whole blood pretreated with effector: LPS induced degradation of IκB in lymphocytes; details: whole blood pretreated with inhibitor, then LPS
Procedure: (§3) The assay generally comprises treating whole blood with an IκB degradation agonist and/or proteasome effector, fixing the blood cells, permeabilizing the fixed bloods cells, treating the fixed and permeabilized cells with an alcohol treatment to unmask intracellular phosphor-epitopes, and then staining the treated cells with antibodies for flow cytometry analysis.
(§4) Whole blood samples from normal human donors were collected. 100 μL aliquots of the whole blood were inserted into the bottom of 12×75 mm tubes. In order to reduce the potential for contamination of the sample with unfixed cells, blood was removed from the side of the tubes with a cotton swab. […]
(§5) Following the above wash steps, the fixed and permeabilized cells were resuspended in 100 μL of cold Wash Buffer comprising antibodies to specific intracellular antigens (e.g., signaling targets including P-ERK, P-Akt, P-p38, P-SAPK, P-S6, and antibodies to IκB). […] The supernatant was aspirated and the cell pellet was resuspended in 350 μL of Resuspension Buffer (PerFix-P® kit) and analyzed on a flow cytometer (GALLIOS™) using a protocol with defined population gates and series of dual parameter histograms. A CD45-KO vs. SS dual parameter histogram was collected and a gate around the leukocyte population based on the CD45+ fluorescence and SS characteristics was drawn to exclude debris (CD45 negative events). […]

IκB in granulocytes = assay: Flow cytometry assay, whole blood pretreated with effector: IκB levels in granulocytes after LPS; details: whole blood pretreated with inhibitor, then LPS; 60 minutes time period
Procedure: as §3, §4, §5

[3] = test system: P-ERK (P-Thr202/P-Tyr204) in peripheral blood monocytes; assay: ERK phosphorylation in LPS activated monocytes from pretreated whole blood; details: LPS activated monocytes
Procedure: (§6) Whole blood samples from normal human donors were collected. 100 μL aliquots of the whole blood were inserted into the bottom of 12×75 mm tubes. In order to reduce the potential for contamination of the sample with unfixed cells, blood was removed from the side of the tubes with a cotton swab. 1-2 μL of a proteasome effector was added to a first portion of the tubes and these tubes were incubated for 2 hours at 37° C. in a water bath. In this example, the proteasome effector was Bortezomib or MG-132, both proteasome inhibitors. Following pretreatment with the proteasome effector, 2 μL of […] stock solution (100 ng) of an IκB degradation agonist was added to the tubes and the tubes were incubated from 1 minute to 60 minutes at 37° C. in a water bath. In this example, the agonist was lipopolysaccharide (LPS). A second portion of the tubes were treated with the IκB degradation agonist and no proteasome effector. 2 μL of an IκB degradation agonist was added to these tubes and the tubes were incubated from 1 minute to 60 minutes as described above. For control tubes, 2 μL of phosphate buffered saline (PBS) was added to the tubes and the tubes were incubated as described above.
(§7) Following incubation, the cells were fixed and permeabilized with a PerFix-P® kit (Beckman Coulter, Inc., Brea. Calif.) according to the manufacturer's instructions. The fixed and permeabilized cells were then washed with 2 mL of Wash Buffer (PBS (w/o Ca++/Mg++) with 2% fetal bovine serum (FBS), sterile filtered (0.22 μm filter)) in the tubes and centrifuged at 500×g for 4 minutes. The cell pellet was resuspended in 2 mL of cold (4° C.) Wash Buffer, centrifuged at 500×g for 4 minutes, and the supernatant was aspirated.
Following the above wash steps, the fixed and permeabilized cells were resuspended in 100 μL of cold Wash Buffer comprising antibodies to specific intracellular antigens (e.g., signaling targets including P-ERK, P-Akt, P-p38, P-SAPK, P-S6, and antibodies to IκB). The antibodies were labeled with different fluorochromes (e.g. fluorophores) to facilitate their-individual measurement of the intracellular antigens. […] For example, anti-CD14 antibodies were included to specifically label monocytes, anti-CD3 antibodies or anti-CD19 antibodies were included to specifically label T or B-cells respectively, and/or anti-CD38/CD138 antibodies were included to specifically label plasma cells. The cells were incubated with the antibodies for 30 minutes at room temperature and then the cells were washed in 2 mL of cold Wash Buffer and centrifuged as described above. The supernatant was aspirated and the cell pellet was resuspended in 350 μL of Resuspension Buffer (PerFix-P® kit) and analyzed on a flow cytometer (GALLIOS™) using a protocol with defined population gates and series of dual parameter histograms. A CD45-KO vs. SS dual parameter histogram was collected and a gate around the leukocyte population based on the CD45+ fluorescence and SS characteristics was drawn to exclude debris (CD45 negative events). A minimum of 2,500 CD14+ events were collected. […] The collected flow cytometric data was analyzed using KALUZA™ software.
as §2

[4] = test system: P-Akt (P-Ser473) in peripheral blood monocytes; assay: Akt phosphorylation in LPS activated monocytes from pretreated whole blood
Procedure: (§8) Whole blood samples from normal human donors were collected. 100 μL aliquots of the whole blood were inserted into the bottom of 12×75 mm tubes. In order to reduce the potential for contamination of the sample with unfixed cells, blood was removed from the side of the tubes with a cotton swab. 1-2 μL of a proteasome effector was added to a first portion of the tubes and these tubes were incubated for 2 hours at 37° C. in a water bath. In this example, the proteasome effector was Bortezomib or MG-132, both proteasome inhibitors. […]
as §1, with “software. […]” for “software.”

[5] = test system: P-S6 (P-Ser235/P-Ser236) in peripheral blood monocytes; assay: S6 phosphorylation in LPS activated monocytes from pretreated whole blood
Procedure: as §8
as §1, with “software. […]” for “software.”

[6] = test system: peripheral blood monocytes; assay: IκB degradation agonists in whole blood: IκB degradation and signaling pathway activation in monocytes; details: for Pathways Activated: Target Cell Population: Monocytes
Procedure: as §6, §7
(§9) Following the above wash steps, the fixed and permeabilized cells were resuspended in 100 μL of cold Wash Buffer comprising antibodies to specific intracellular antigens (e.g., signaling targets including P-ERK, P-Akt, P-p38, P-SAPK, P-S6, and antibodies to IκB). The antibodies were labeled with different fluorochromes (e.g. fluorophores) to facilitate their-individual measurement of the intracellular antigens. In order to target specific cell populations in the assay, antibodies capable of differentiating cell populations within the blood sample were also included in some of the tubes. For example, anti-CD14 antibodies were included to specifically label monocytes, anti-CD3 antibodies or anti-CD19 antibodies were included to specifically label T or B-cells respectively, and/or anti-CD38/CD138 antibodies were included to specifically label plasma cells. The cells were incubated with the antibodies for 30 minutes at room temperature and then the cells were washed in 2 mL of cold Wash Buffer and centrifuged as described above. The supernatant was aspirated and the cell pellet was resuspended in 350 μL of Resuspension Buffer (PerFix-P® kit) and analyzed on a flow cytometer (GALLIOS™) using a protocol with defined population gates and series of dual parameter histograms. A CD45-KO vs. SS dual parameter histogram was collected and a gate around the leukocyte population based on the CD45+ fluorescence and SS characteristics was drawn to exclude debris (CD45 negative events). A minimum of 2,500 CD14+ events were collected. A stop count region was set from the CD14-PC7 vs. SS histogram gated on monocytes. Dual parameter histograms gated on the appropriate populations were created to measure the populations of interest. The collected flow cytometric data was analyzed using KALUZA™ software.
(§10) Phosphorylation of signaling pathways activated by TNF-α, including ERK, Akt, and the ribosomal S6 protein, was monitored together with the degradation of IκB in peripheral blood WBCs. Whole blood samples were treated, activated, and processed as described in Example 1 and the degradation of IκB in peripheral blood cells was monitored by flow cytometry as described in Example 1. The IκB degradation agonist used in this example was TNF-α. […]

[7] = test system: peripheral blood lymphocytes; assay: IκB degradation agonists in whole blood: IκB degradation and signaling pathway activation in lymphocytes; details: for Pathways Activated: Target Cell Population: Lymphocytes (subpopulation)
Procedure: as §6, §7, §9, §10

granulocytes = assay: IκB degradation agonists in whole blood: IκB degradation and signaling pathway activation in granulocytes; details: Target Cell Population: Granulocytes
Procedure: as §6, §7
as §1, with “IκB). The antibodies were labeled with different fluorochromes (e.g. fluorophores) to facilitate their-individual measurement of the intracellular antigens.” for “IκB).”

[8] = pathway: P-ERK/MAP kinase (Ras > Raf)

Compound: CC(C)C[C@@H](C=O)NC(=O)[C@H](CC(C)C)NC(=O)[C@H](CC(C)C)NC(=O)OCc1ccccc1 [MG-132] (Cbz-Leu-Leu-Leu-aldehyde)
- effect on LPS induced degradation of IκB in monocytes [1]: inhibited degradation of IκB
- LPS induced degradation of IκB in lymphocytes [2]: No significant degradation
- degradation of IκB in granulocytes (IκB in granulocytes): No significant degradation
- "early" (first) ERK phosphorylation peak ([3]; 2-4 minutes): not the first
- "late" (second) ERK activation peak ([3]; about 10 minutes): inhibited
- Akt activation [4]: no effect
- MFI of the S6 phosphorylation response, lower than in the sample treated with only LPS [5]: approximately 50%

Compound: CCCCCCCCCCCCCC(=O)O[C@@H]1[C@@H](C)[C@@]2(O)[C@@H](C=C(CO)C[C@]3(O)C(=O)C(C)=C[C@@H]23)[C@@H]2C(C)(C)[C@]12OC(C)=O [PMA]
- Pathways Activated ([6]; pathway: (IκB is not degraded)): (IκB is not degraded)
- Pathways Activated [6, 8]: P-ERK/MAP kinase (Ras > Raf)
- ERK activation in monocytes ([6]; agonist alone): activation of ERK
- degradation of IκB in monocytes ([6]; agonist alone): no degradation of IκB
- Pathways Activated ([7]; pathway: IκB > NFκB (PKC?)): IκB > NFκB (PKC?)
- Pathways Activated [7, 8]: P-ERK/MAP kinase (Ras > Raf)
- Pathways Activated ([7]; pathway: P-S6 (P-ERK)): P-S6 (P-ERK)
- Akt activation in lymphocytes ([7]; agonist alone): not activated
- ERK activation in lymphocytes ([7]; agonist alone): activation of ERK
- degradation of IκB in lymphocytes ([7]; agonist alone): stimulated the degradation of IκB
- lymphocytes with both degradation of IκB and activation of ERK ([7]; over the 15 min time course): approximately 50%
- Pathways Activated (granulocytes): P-ERK/MAP kinase

Compound: TNFα
- Pathways Activated ([6]; pathway: IκB > NFκB): IκB > NFκB
- Pathways Activated ([6]; pathway: PI3 kinase > Akt): PI3 kinase > Akt
- Pathways Activated ([6]; pathway: Tpl-2 > ERK/MAP kinase): Tpl-2 > ERK/MAP kinase
- Akt activation in monocytes ([6]; agonist alone): Neither Akt nor S6 was activated
- ERK activation in monocytes ([6]; agonist alone): activated
- S6 activation in monocytes ([6]; agonist alone): Neither Akt nor S6 was activated
- degradation of IκB in monocytes ([6]; agonist alone): induced degradation of IκB
- time of peak loss of IκB after stimulation ([6]; monocytes): 10 min
- Pathways Activated ([7]; pathway: ERK/MAP kinase (Tpl-2)): ERK/MAP kinase (Tpl-2)
- Pathways Activated ([7]; pathway: IκB > NFκB): IκB > NFκB
- Pathways Activated ([7]; pathway: PI3 kinase > Akt): PI3 kinase > Akt
- Akt activation in lymphocytes ([7]; agonist alone): Neither Akt nor S6 was activated
- ERK activation in lymphocytes ([7]; agonist alone): no apparent response
- S6 activation in lymphocytes ([7]; agonist alone): Neither Akt nor S6 was activated
- degradation of IκB in lymphocytes ([7]; agonist alone): induced degradation of IκB
- time of peak loss of IκB after stimulation ([7]; lymphocytes): 15 min
- Pathways Activated (granulocytes): P-p38 MAP kinase
